Measurements taken from patent US20140051650A1, “VAGINAL COMPOSITIONS BASED ON ALKYL POLYGLUCOSIDES” (EFFIK S.A., priority 2011, published 2014).

Legend:
Format in all cases: cell-based
Streptococcus agalactiae = assay: Minimum Inhibitory Concentration (MIC) on agarised medium against Streptococcus agalactiae
Method: The assay was carried out on an M-Ha medium+blood at 5%. The medium was prepared at a concentration 33% higher with respect to the final one used in the test corresponding to the one indicated by the supplier. After sterilisation in autoclave, the medium was balanced at the temperature of 48° C. and added with horse blood at the concentration of 6.6% (33% higher than the final concentration of the assay). 15 ml aliquots of M-Ha medium+blood were transferred into 50 ml falcon test tubes maintained at 48° C., added with 5 ml of the dilutions of the substances to be assayed, mixed, poured into Petri dishes and left to solidify. Twenty-five bacterial inoculums, each with approximate volume of about 5 μl and containing about 10^5 ufc, were deposited on the surface of the M-Ha medium+blood of each plate. After incubation at 37° C. for 18 hours the minimum inhibitory concentration (MIC) defined as the minimum concentration of substance capable of inhibiting a bacterial growth noticeable to the naked eye at the area of deposition of the inoculums was read.
In the test with Streptococcus agalactiae the minimum inhibitory concentrations in the assay in liquid medium, regarding which only the bactericide minimum concentration values are indicated, could not be determined with sufficient reliability due to the turbidity of the solutions containing the substances. “Determination of the Minimum Inhibitory Concentration on Agarised Medium” was carried out to obtain the MIC values.

[1] = test system: Lactobacillus crispatus NCIMB 4505; assay: MBC against Lactobacillus crispatus; conditions: substance alone
Method: (§1) The vaginal lactobacillus strains used are the NCIMB 4505 strain of Lactobacillus crispatus, the NCIMB 13279 strain of Lactobacillus jensenii and NCIMB 702820 strain of Lactobacillus gasseri. [table] The other assayed microbial strains were cultured in the liquid media and in the incubation conditions specified in table A, following the operating procedure described above. Immediately after determining the value of the MIC for each substance, a volume equivalent to 50 μl was taken from each well and streaked on the surface of plates containing the solid medium. The plates were subsequently incubated at the conditions indicated for each microbial strain. After incubation at 37° C. for 24 hours, the number of colonies grown on the medium surface was counted thus determining the number of bacteria that survived after 24 hours of contact with the substance at the concentration present in the well. The MBC value defined as the lowest concentration of each substance capable of reducing the bacterial load by 99.9% in the previously defined assay conditions was determined through comparison between the number of bacteria that survived in each well and that of the bacterial inoculum deposited initially.

[2] = test system: Gardnerella vaginalis ATCC 14018; assay: MBC against Gardnerella vaginalis; conditions: substance alone
Method: as §1, with “Gardnerella vaginalis ATCC 14018 strain, the Neisseria gonorrhoeae ATCC 43069 strain and the Candida albicans ATCC 10231 strain were also” for “vaginal lactobacillus strains”, “for” for “are”, “experiment.” for “NCIMB 4505 strain of Lactobacillus crispatus, the NCIMB 13279 strain of Lactobacillus jensenii and NCIMB 702820 strain of Lactobacillus gasseri.”

[3] = test system: Gardnerella vaginalis ATCC 14018; assay: MIC against Gardnerella vaginalis; conditions: substance alone
Method: (§2) The Gardnerella vaginalis ATCC 14018 strain, the Neisseria gonorrhoeae ATCC 43069 strain and the Candida albicans ATCC 10231 strain were also used for the experiment.
(§3) The other assayed microbial strains were cultured in the liquid media and in the incubation conditions specified in table A, following the operating procedure described above.
(§4) The assay was carried out in 96-well microtitre plates. 50 μl of substance solution at the “mother” concentration alongside 50 μl of liquid medium at double concentration were deposited in the first well of each of the 8 rows while 50 μl of liquid medium at normal concentration were deposited in the remaining 11 wells. Starting from the first well of each row, 50 μl volumes were transferred from each well to the subsequent one 10 times, thus obtaining a series of 11 dilutions after doubling. The 12th well of each row was kept substance-free as a function of positive control of the bacterial growth.
(§5) Subsequently, 50 μl of diluted bacterial inoculum as specified previously were deposited in all wells of the plate, except for the 11th of each row. Only the liquid medium at single concentration but bacteria-free, was deposited in the 11th well, with the aim of providing negative control for each row. The described scheme was used for the assay with each of the assayed microbial strains. […]

[4] = test system: Neisseria gonorrhoeae ATCC 43069; assay: MBC against Neisseria gonorrhoeae; conditions: substance alone
Method: as §1, with “Gardnerella vaginalis ATCC 14018 strain, the Neisseria gonorrhoeae ATCC 43069 strain and the Candida albicans ATCC 10231 strain were also” for “vaginal lactobacillus strains”, “for” for “are”, “experiment.” for “NCIMB 4505 strain of Lactobacillus crispatus, the NCIMB 13279 strain of Lactobacillus jensenii and NCIMB 702820 strain of Lactobacillus gasseri.”

[5] = test system: Candida albicans ATCC 10231; assay: MIC against Candida albicans; conditions: substance alone
Method: as §2, §3, §4
Subsequently, 50 μl of diluted bacterial inoculum as specified previously were deposited in all wells of the plate, except for the 11th of each row. Only the liquid medium at single concentration but bacteria-free, was deposited in the 11th well, with the aim of providing negative control for each row. The described scheme was used for the assay with each of the assayed microbial strains.
After incubation at the conditions indicated regarding each micro-organism, the microtitre plates were examined to verify, in each well, the presence or absence of bacterial growth. The minimum inhibitory concentration is defined as the lowest concentration of the substance still capable of inhibiting bacterial growth i.e. preventing the liquid from becoming turbid within the well.

[6] = test system: Neisseria gonorrhoeae ATCC 43069; assay: MIC against Neisseria gonorrhoeae; conditions: substance alone
Method: as §2, §3, §4, §5

[7] = test system: Candida albicans ATCC 10231; assay: MBC against Candida albicans; conditions: substance alone
Method: as §1, with “Gardnerella vaginalis ATCC 14018 strain, the Neisseria gonorrhoeae ATCC 43069 strain and the Candida albicans ATCC 10231 strain were also” for “vaginal lactobacillus strains”, “for” for “are”, “experiment.” for “NCIMB 4505 strain of Lactobacillus crispatus, the NCIMB 13279 strain of Lactobacillus jensenii and NCIMB 702820 strain of Lactobacillus gasseri.”

caprylyl/capryl glucoside/C8-C10 alkyl polyglucoside [Substance A1]
MIC (minimum inhibiting concentration) (Streptococcus agalactiae; strain 2, substance alone): 0.093% | MIC (minimum inhibiting concentration) (Streptococcus agalactiae; strain 5, substance alone): 0.093% | MIC (minimum inhibiting concentration) (Streptococcus agalactiae; strain 6, substance alone): 0.048% | MIC (minimum inhibiting concentration) (Streptococcus agalactiae; strain 7, substance alone): 0.093% | MIC (minimum inhibiting concentration) (Streptococcus agalactiae; strain 8, substance alone): 0.19% | MIC (minimum inhibiting concentration) (Streptococcus agalactiae; strain 9, substance alone): 0.093% | MIC (minimum inhibiting concentration) (Streptococcus agalactiae; strain 10, substance alone): 0.19% | MIC (minimum inhibiting concentration) (Streptococcus agalactiae; strain 11, substance alone): 0.093% | MIC (minimum inhibiting concentration) (Streptococcus agalactiae; strain 12, substance alone): 0.093% | MIC (minimum inhibiting concentration) (Streptococcus agalactiae; strain 13, substance alone): 0.093% | MIC (minimum inhibiting concentration) (Streptococcus agalactiae; strain 14, substance alone): 0.093% | MIC (minimum inhibiting concentration) (Streptococcus agalactiae; strain 15, substance alone): 0.048% | MIC (minimum inhibiting concentration) (Streptococcus agalactiae; strain 16, substance alone): 0.093% | MIC (minimum inhibiting concentration) (Streptococcus agalactiae; strain 17, substance alone): 0.048% | MIC (minimum inhibiting concentration) (Streptococcus agalactiae; strain 18, substance alone): 0.19% | MIC (minimum inhibiting concentration) (Streptococcus agalactiae; strain 19, substance alone): 0.093% | MIC (minimum inhibiting concentration) (Streptococcus agalactiae; strain 20, substance alone): 0.048% | MIC (minimum inhibiting concentration) (Streptococcus agalactiae; strain 21, substance alone): 0.048% | MIC (minimum inhibiting concentration) (Streptococcus agalactiae; strain 22, substance alone): 0.093% | MIC (minimum inhibiting concentration) (Streptococcus agalactiae; strain 23, substance alone): 0.093% | MIC (minimum inhibiting concentration) (Streptococcus agalactiae; strain 24, substance alone): 0.093% | MIC (minimum inhibiting concentration) (Streptococcus agalactiae; strain 25, substance alone): 0.048% | MIC (minimum inhibiting concentration) (Streptococcus agalactiae; strain 12386, substance alone): 0.093% | MIC (minimum inhibiting concentration) (Streptococcus agalactiae; strain 12403, substance alone): 0.093% | MIC (minimum inhibiting concentration) (Streptococcus agalactiae; strain 27956, substance alone): 0.093% | MBC [1]: 0.193%

lauryl glucoside/C12-C16 alkyl polyglucoside [Substance A2]
MBC [2]: 0.0048% | MIC (minimum inhibiting concentration) (Streptococcus agalactiae; strain 2, substance alone): 0.0097% | MIC (minimum inhibiting concentration) (Streptococcus agalactiae; strain 5, substance alone): 0.019% | MIC (minimum inhibiting concentration) (Streptococcus agalactiae; strain 6, substance alone): 0.0097% | MIC (minimum inhibiting concentration) (Streptococcus agalactiae; strain 7, substance alone): 0.0097% | MIC (minimum inhibiting concentration) (Streptococcus agalactiae; strain 8, substance alone): 0.019% | MIC (minimum inhibiting concentration) (Streptococcus agalactiae; strain 9, substance alone): 0.0097% | MIC (minimum inhibiting concentration) (Streptococcus agalactiae; strain 10, substance alone): 0.019% | MIC (minimum inhibiting concentration) (Streptococcus agalactiae; strain 11, substance alone): 0.0097% | MIC (minimum inhibiting concentration) (Streptococcus agalactiae; strain 12, substance alone): 0.0097% | MIC (minimum inhibiting concentration) (Streptococcus agalactiae; strain 13, substance alone): 0.0097% | MIC (minimum inhibiting concentration) (Streptococcus agalactiae; strain 14, substance alone): 0.0097% | MIC (minimum inhibiting concentration) (Streptococcus agalactiae; strain 15, substance alone): 0.019% | MIC (minimum inhibiting concentration) (Streptococcus agalactiae; strain 16, substance alone): 0.0097% | MIC (minimum inhibiting concentration) (Streptococcus agalactiae; strain 17, substance alone): 0.0097% | MIC (minimum inhibiting concentration) (Streptococcus agalactiae; strain 18, substance alone): 0.019% | MIC (minimum inhibiting concentration) (Streptococcus agalactiae; strain 19, substance alone): 0.0097% | MIC (minimum inhibiting concentration) (Streptococcus agalactiae; strain 20, substance alone): 0.0097% | MIC (minimum inhibiting concentration) (Streptococcus agalactiae; strain 21, substance alone): 0.0097% | MIC (minimum inhibiting concentration) (Streptococcus agalactiae; strain 22, substance alone): 0.0097% | MIC (minimum inhibiting concentration) (Streptococcus agalactiae; strain 23, substance alone): 0.0097% | MIC (minimum inhibiting concentration) (Streptococcus agalactiae; strain 24, substance alone): 0.0097% | MIC (minimum inhibiting concentration) (Streptococcus agalactiae; strain 25, substance alone): 0.0097% | MIC (minimum inhibiting concentration) (Streptococcus agalactiae; strain 12386, substance alone): 0.0097% | MIC (minimum inhibiting concentration) (Streptococcus agalactiae; strain 12403, substance alone): 0.0097% | MIC (minimum inhibiting concentration) (Streptococcus agalactiae; strain 27956, substance alone): 0.019% | MIC [3]: 0.0048% | MBC [4]: ≦0.0012% | MIC [5]: 0.077% | MIC [6]: ≦0.0012% | MBC [1]: 0.077% | MBC [7]: 0.154%
